Here are results for 7 molecules from US20230372433A1, “NANOPARTICLE FOR ANTI-CANCER PEPTIDES AND USES THEREOF” (KING'S COLLEGE LONDON, priority 2020, published 2023).

Like-named read-outs stand apart in the source and are kept apart here. [ ]: non-standard residue; d: D form.

Series [1] deals with U2OS (human bone osteosarcoma). Kind of series: MTT cytotoxicity assay, U2OS. Conditions: 72 hr. It counts as cell-based. A general note: Tetrazolium dyes change colour on reduction, which living cells bring about.
The subject of series [2] is HEK293T (human embryonic kidney cell). Kind of series: MTT cytotoxicity assay, HEK293T. It is filed as cell-based. The note with it: read-out: IC50 HEK293T.
Series [3] concerns HMLER (human breast cancer bulk cell). Kind of series: MTT cytotoxicity assay, HMLER. It is filed as cell-based. Conditions: read-out: IC50 HMLER.
The subject of another series is HMLER-shEcad cells. Kind of series: HMLER-shEcad viability with co-incubated necrostatin or z-VAD-FMK. It counts as cell-based, human.
Series [4] has as its system MCF-10A (human breast epithelial cell). Put plainly: cells.
Series [5] concerns HMLER-shEcad (human breast cancer stem cell). Put plainly: MTT cytotoxicity assay, HMLER-shEcad. It counts as cell-based.
The subject of series [6] is HMLER-shEcad mammospheres. Kind of series: Tumoursphere formation and viability assay. It counts as cell-based, human.
A short description of series [7]: Tryptophan fluorescent binding assay, 3POPC/1POPG vesicles. The note with it: 50 μM peptide, PBS pH 7.4. A digest of the protocol:
(§1)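 Tryptophan fluorescence was measured with peptide fixed at 50 μM and POPC or 3POPC/1POPG LUVs (100 nm extruded) titrated 0–5000 μM in PBS pH 7.4, read after 60 min. Excitation was 280 nm and emission 300–450 nm. The value is the lipid concentration giving 50% peptide binding, expressed as lipid per peptide.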

A short description of series [8]: Tryptophan fluorescent binding assay, POPC vesicles. Conditions: 50 μM peptide, PBS pH 7.4. A digest of the protocol:
as §1

Series [9] in a line: ANTS/DPX liposome leakage assay, 3POPC/1POPG vesicles. It counts as biochemical. The note with it: for Peptide Concentration-induced 50% ANTS/DPX leakage at pH 4.8 (L/P) 3POPC/1POPG Vesicle / Peptide Concentration-induced 50% ANTS/DPX leakage at pH 7.4 (L/P) 3POPC/1POPG Vesicle: 0.5 mM vesicles; for liposome leakage activity from anionic vesicle at pH 4.8: compared with zwitterionic vesicle. A digest of the protocol:
(§2)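 0.5 mM extruded 100 nm LUVs loaded with 5 mM ANTS/12.5 mM DPX were incubated 3 h with peptide at 0–20 μM in PBS pH 7.4 or HCl-adjusted PBS pH 4.8. Fluorescence read at ex 350/em 510 nm; 10% Triton set maximum leakage; values expressed as lipid per peptide.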

Series [10] in a line: ANTS/DPX liposome leakage assay, POPC vesicles. It counts as biochemical. The note with it: 0.5 mM vesicles. The method in brief: as §2
A further series has as its system human red blood cells. As for the experimental part: Peptides were serially diluted in PBS starting at a concentration of 100 μM. The final volume of peptide in each well was 50 μL. To each well, 50 μL of RBCs in PBS at 2×10^8 cells/mL was added. As a positive lysis control, 1% triton was used. The mixtures were incubated at 37° C. for 1 hour, after which they were centrifuged at 1000x g for 5 minutes. After centrifugation, 10 μL of supernatant was transferred to 90 μL of DI H2O in a fresh 96-well plate. The absorbance of released hemoglobin at 410 nm was recorded and the fractional hemolysis was calculated based on the 100% and 0% lysis controls.

Setting [11] is: read-out: IC50 MCF-10A, 72 hr, MTT.
[12] abbreviates: 72 hr, MTT, read-out: IC50 HMLER-shEcad.
Setting [13] is: Homo sapiens, MCF-10A, 72 h, read-out: IC50 MCF-10A.

As usually defined, the IC50 is the concentration that inhibits the measured activity by half. “D-form peptide of the selected sequence EEK (GLLELLELLLKAAGW) (H-G[dL][dL][dE][dL][dL][dE][dL][dL][dL][dK][dA][dA]G[dW]-NH2) [D-form EEK]”: the IC50 was 4.78 ± 0.02 µM in series [1]; 2.82 ± 0.07 µM in series [2] (72 hr, MTT); 0.29 ± 0.01 µM in series [3] (72 hr, MTT); 1.07 ± 0.1 µM in series [4] (setting [11]); 0.29 ± 0.01 µM in series [5] (setting [12]). Moreover, the “cell viability on co-incubation with necrostatin or z-VAD-FMK” value (“cell viability on co-incubation” for short) with HMLER-shEcad cells is given as “cannot be improved”.

As for `COc1cccc2c1C(=O)c1c(O)c3c(c(O)c1C2=O)C[C@@](O)(C(=O)CO)C[C@@H]3O[C@H]1C[C@H](N)[C@H](O)[C@H](C)O1` [Doxorubicin, reference compound], the IC50 in [1] (Homo sapiens, U2OS) worked out at 0.015 µM; in series [2] (Homo sapiens, HEK-293T, 72 hr, MTT), 0.00011 µM; in series [3] (Homo sapiens, 72 hr, MTT), 0.0025 µM; in series [4] (setting [13]), 0.64 µM; in series [5] (Homo sapiens, 72 hr, MTT, read-out: IC50 HMLER-shEcad), 0.003 µM; in series [5] (Homo sapiens, two-dimensional culture, read-out: IC50 against two-dimensional HMLER-shEcad) it was 0.0025 ± 0.0003 µM. Also, the “cell viability on co-incubation” value in the series on HMLER-shEcad cells is “can be dramatically improved”. For the same molecule, in series [6], the “fold decrease in activity, mammospheres versus two-dimensional HMLER-shEcad” value is 1,700 fold.

Turning to GLLKLLKLLLKAAG [KKK], the “Lipid Concentration-induced 50% Peptide Binding (L/P) 3POPC/1POPG Vesicle” value in series [7] is 1.70 L/P. The half-maximal inhibitory concentration (IC50) in [1] stood at 9.65 ± 1.2 µM; in series [2] (72 hr, MTT) it was 3.7 ± 0.14 µM; in [3] (72 hr, MTT), 1.57 ± 0.24 µM; in series [4] (setting [11]) it was 1.37 ± 0.24 µM; in series [5] (setting [12]) it was 1.35 ± 0.4 µM. Also, in series [8], the “Lipid Concentration-induced 50% Peptide Binding (L/P) POPC Vesicle” value worked out at 1.25 L/P. Moreover, in series [9], the “Peptide Concentration-induced 50% ANTS/DPX leakage at pH 4.8 (L/P) 3POPC/1POPG Vesicle” value is recorded as 81 L/P. Also, the “Peptide Concentration-induced 50% ANTS/DPX leakage at pH 7.4 (L/P) 3POPC/1POPG Vesicle” value in series [9] was determined as 115 L/P. Besides, the “Peptide Concentration-induced 50% ANTS/DPX leakage at pH 4.8 (L/P) POPC Vesicle” value in series [10] is reported as 156 L/P. Moreover, the “Peptide Concentration-induced 50% ANTS/DPX leakage at pH 7.4 (L/P) POPC Vesicle” value in [10] is on record as 1369 L/P.

`CC(C)C[C@H](NC(=O)CN)C(=O)N[C@@H](CC(C)C)C(=O)N[C@@H](CCC(=O)O)C(=O)N[C@@H](CC(C)C)C(=O)N[C@@H](CC(C)C)C(=O)N[C@@H](CCC(=O)O)C(=O)N[C@@H](CC(C)C)C(=O)N[C@@H](CC(C)C)C(=O)N[C@@H](CC(C)C)C(=O)N[C@@H](Cc1c[nH]cn1)C(=O)N[C@@H](C)C(=O)N[C@@H](C)C(=O)NCC(=O)N[C@@H](Cc1c[nH]c2ccccc12)C(N)=O` [EEH]: the “Lipid Concentration-induced 50% Peptide Binding (L/P) 3POPC/1POPG Vesicle” value in [7] is reported as 0.50 L/P. For the same molecule, the IC50 in [1] was 19.6 ± 3.96 µM; in [2] (72 hr, MTT) it was 12.9 ± 0.14 µM; in series [3] (72 hr, MTT) it was 3.3 ± 0.14 µM; in [4] it was no less than 100 µM; in series [5] (setting [12]), 3.6 ± 0.85 µM. The “Lipid Concentration-induced 50% Peptide Binding (L/P) POPC Vesicle” value in series [8] stood at 0.50 L/P. Further, in series [9], the “Peptide Concentration-induced 50% ANTS/DPX leakage at pH 4.8 (L/P) 3POPC/1POPG Vesicle” value was found to be 168 L/P. For the same molecule, the “Peptide Concentration-induced 50% ANTS/DPX leakage at pH 7.4 (L/P) 3POPC/1POPG Vesicle” value in series [9] was 755 L/P. In addition, in series [9], the “liposome leakage activity from anionic vesicle at pH 4.8” value was “relatively higher liposome leakage activity”. Also, the “Peptide Concentration-induced 50% ANTS/DPX leakage at pH 4.8 (L/P) POPC Vesicle” value in series [10] came to 58 L/P. In addition, in series [10], the “Peptide Concentration-induced 50% ANTS/DPX leakage at pH 7.4 (L/P) POPC Vesicle” value was 738 L/P.

Turning to GLLHLLHLLLKAAG [HHK], in series [7], the “Lipid Concentration-induced 50% Peptide Binding (L/P) 3POPC/1POPG Vesicle” value was 0.20 L/P. The IC50 was determined as 12.7 ± 1.91 µM in series [1]; 5.25 ± 1.48 µM in series [2] (72 hr, MTT); 3.15 ± 0.07 µM in series [3] (72 hr, MTT); 5.6 ± 0.14 µM in series [4] (setting [11]); 1.75 ± 0.21 µM in [5] (setting [12]). Further, in series [8], the “Lipid Concentration-induced 50% Peptide Binding (L/P) POPC Vesicle” value amounted to 0.68 L/P. The “Peptide Concentration-induced 50% ANTS/DPX leakage at pH 4.8 (L/P) 3POPC/1POPG Vesicle” value in series [9] stood at 111 L/P. Besides, the “Peptide Concentration-induced 50% ANTS/DPX leakage at pH 7.4 (L/P) 3POPC/1POPG Vesicle” value in series [9] is reported as 160 L/P. Besides, in [10], the “Peptide Concentration-induced 50% ANTS/DPX leakage at pH 4.8 (L/P) POPC Vesicle” value came out at 149 L/P. Further, the “Peptide Concentration-induced 50% ANTS/DPX leakage at pH 7.4 (L/P) POPC Vesicle” value in [10] stood at 1133 L/P.

For `CC(C)C[C@H](NC(=O)CN)C(=O)N[C@@H](CC(C)C)C(=O)N[C@@H](CCC(=O)O)C(=O)N[C@@H](CC(C)C)C(=O)N[C@@H](CC(C)C)C(=O)N[C@@H](CCC(=O)O)C(=O)N[C@@H](CC(C)C)C(=O)N[C@@H](CC(C)C)C(=O)N[C@@H](CC(C)C)C(=O)N[C@@H](CCCCN)C(=O)N[C@@H](C)C(=O)N[C@@H](C)C(=O)NCC(=O)N[C@@H](Cc1c[nH]c2ccccc12)C(N)=O` [EEK], the “Lipid Concentration-induced 50% Peptide Binding (L/P) 3POPC/1POPG Vesicle” value in [7] was 4.50 L/P. For the same molecule, the “Lipid Concentration-induced 50% Peptide Binding (L/P) POPC Vesicle” value in [8] is listed as 0.48 L/P. For the same molecule, the “concentration below which minimal lysis is caused” value with human red blood cells was “below 90 μM”. Also, in the series with HMLER-shEcad cells, the “cell viability on co-incubation” value is recorded as “cannot be improved”. In addition, in [9], the “Peptide Concentration-induced 50% ANTS/DPX leakage at pH 4.8 (L/P) 3POPC/1POPG Vesicle” value stood at 386 L/P, the “Peptide Concentration-induced 50% ANTS/DPX leakage at pH 7.4 (L/P) 3POPC/1POPG Vesicle” value came to 657 L/P and the “liposome leakage activity from anionic vesicle at pH 4.8” value was “relatively higher liposome leakage activity”. Besides, in series [10], the “Peptide Concentration-induced 50% ANTS/DPX leakage at pH 4.8 (L/P) POPC Vesicle” value is reported as 39 L/P and the “Peptide Concentration-induced 50% ANTS/DPX leakage at pH 7.4 (L/P) POPC Vesicle” value amounted to 730 L/P.

Regarding `CC[C@@H](C(=O)[C@@H](C)[C@@H](O)[C@H](C)[C@@H]1O[C@@H]([C@@H](CC)C(=O)O)CC[C@@H]1C)[C@H]1O[C@]2(C=C[C@@H](O)[C@]3(CC[C@@](C)([C@H]4CC[C@](O)(CC)[C@H](C)O4)O3)O2)[C@H](C)C[C@@H]1C` [Salinomycin, reference compound], the half-inhibitory concentration (IC50) in series [2] (Homo sapiens, HEK-293T, 72 h) was found to be 0.41 ± 0.1 µM; in [3] (Homo sapiens, 72 h), 0.37 ± 0.08 µM; in [4] (setting [13]) it was 9.76 ± 2.28 µM; in series [5] (Homo sapiens, 72 h, read-out: IC50 HMLER-shEcad), 0.92 ± 0.28 µM; in [5] (Homo sapiens, read-out: IC50 against two-dimensional HMLER-shEcad), 0.37 ± 0.0005 µM; in series [6] (Homo sapiens, read-out: IC50 in mammospheres), 22 ± 5 µM. Moreover, in series [6], the “fold decrease in activity, mammospheres versus two-dimensional HMLER-shEcad” value is listed as 63 fold.
